Assay [1] addresses T1, CCR9 (Homo sapiens (Human), UniProt P51686). The assay is described as follows: FLIPR calcium flux assay using hCCR9 over expressed cells (Chem1-hCCR9), TECK stimulation. Type of assay: cell-based. The conditions noted are these: Chem1-hCCR9 overexpressing cells. Here is the method:
Biological Activity: FLIPR Assay Using hCCR9 Over Expressed Cells
A calcium flux assay was used to determine the ability of the compounds to interfere with the binding between CCR9 and its chemokine ligand (TECK) in Chem1-hCCR9 overexpressing cells. hCCR9 overexpressing cells were seeded (25,000 cells/well) into black Poly-D-Lysine coated clear bottom 96-well plates (BD Biosciences, Cat #356640) and incubated overnight at 37° C./5% CO2 in a humidified incubator. Media was aspirated and cells washed twice with 100 μL assay buffer (1×HBSS, 20 mM HEPES) containing 2.5 mM Probenecid. A 0.3× Fluo-4 NW calcium dye was prepared in assay buffer containing 5 mM Probenecid and stored in the dark. Each well was loaded with 100 μL of 0.3× Fluo-4 NW calcium dye and incubated at 37° C./5% CO2 for 60 minutes and then at room temperature for 30 minutes. A half-log serially diluted concentration response curve was prepared at a 3× final assay concentration for each compound (10 μM-0.1 nM final assay concentration) and 50 μL of the compound then transferred to the cells (150 μL final volume) for 60 minutes prior to stimulation (30 minutes at 37° C./5% CO2 and 30 minutes at room temperature). TECK was diluted to 4× its EC80 in assay buffer (containing 0.1% [w/v] bovine serum albumin [BSA]) and 50 μL dispensed through the fluorometric imaging plate reader (FLIPR) instrument to stimulate the cells (200 μL final volume). The increase in intracellular calcium levels was measured with the FLIPR instrument. The potency of the compound as a CCR9 antagonist was calculated as an IC50 using GraphPad Prism software (variable slope four parameter). The Ki of the compound was determined from the IC50 values using the following equation. IC50/1+(Agonist (TECK) conc. used in assay/EC50 of agonist (TECK) generated on day of experiment) Ki calculation: […]

The target of assay [2] is T1, CCR9. The assay is described as follows: FLIPR calcium flux assay using MOLT4 cells, TECK stimulation. The format is cell-based. The conditions noted are these: MOLT4 cells (human T-cell line). How it is done:
Biological Activity: FLIPR Assay Using MOLT4 Cells
A calcium flux assay was used to determine the ability of the compounds to interfere with the binding between CCR9 and its chemokine ligand (TECK) in MOLT4 cells (a human T-cell line). MOLT4 cells were seeded (100,000 cells/well) in corning cell culture plates (Cat #3603) in assay buffer (1×HBSS, 20 mM HEPES) containing 2.5 mM Probenecid. The plate was centrifuged at 1200 rpm for 3 minutes and incubated at 37° C./5% CO2 for 2 hours. A 0.3× Fluo-4 NW calcium dye was prepared in assay buffer containing 5 mM Probenecid and stored in the dark. Each well was loaded with 25 μl of 0.3× Fluo-4 NW calcium dye and incubated at 37° C./5% CO2 for 60 minutes and then at room temperature for 30 minutes. A half-log serially diluted concentration response curve was prepared at a 4× concentration for each (10 μM-0.1 nM final assay concentration) and 25 μL of the compound then transferred to the cells (100 μL final volume) for 60 minutes prior to stimulation (30 minutes at 37° C./5% CO2 and 30 minutes at room temperature). […] The increased in intracellular calcium levels was measured with the FLIPR instrument. The potency of the compound as CCR9 antagonist was calculated as an IC50 using GraphPad Prism software (variable slope four parameter). The Ki of the compound was determined from the IC50 values using the following equation. IC50/1+(Agonist (TECK) conc. used in assay/EC50 of agonist (TECK) generated on day of experiment) Ki calculation: […]

T1 sequence (P51686 whole entry): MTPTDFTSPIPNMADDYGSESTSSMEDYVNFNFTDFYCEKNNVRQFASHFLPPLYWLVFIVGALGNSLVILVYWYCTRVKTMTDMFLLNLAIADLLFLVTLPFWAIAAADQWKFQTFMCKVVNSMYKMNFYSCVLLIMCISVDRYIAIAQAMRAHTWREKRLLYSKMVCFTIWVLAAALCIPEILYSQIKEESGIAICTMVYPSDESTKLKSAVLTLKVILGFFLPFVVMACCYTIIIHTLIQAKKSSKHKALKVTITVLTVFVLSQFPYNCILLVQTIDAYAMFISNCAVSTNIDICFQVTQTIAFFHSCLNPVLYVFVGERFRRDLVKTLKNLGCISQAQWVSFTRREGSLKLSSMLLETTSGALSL

Regarding `CC(C)(C)c1ccc(S(=O)(=O)Nc2ccc(Cl)c3c2C(=O)N(c2ccsc2C#N)C3=O)cc1` [Compound 232], the Ki in assay [1] stood at 3 nM; in assay [2], 7 nM.
On the same counts, the results for `O=C1c2c(Cl)ccc(NS(=O)(=O)c3ccc(OC(F)(F)F)cc3)c2C(=O)N1c1cccnc1` [Compound 45] are 314 nM and 52 nM.
On the same counts, the results for `Cc1cc(N2C(=O)c3c(Cl)ccc(NS(=O)(=O)c4ccc(C(C)(C)C)cc4)c3C2=O)c(C)[n+]([O-])c1` [Compound 267] are 59 nM and 27 nM.
On the same counts, the results for `O=C1c2c(Cl)ccc(NS(=O)(=O)c3ccc(C(F)(F)F)cc3)c2C(=O)N1c1cccnc1` [Compound 47] are 309 nM and 34 nM.
Turning to `COc1cncc(CN2C(=O)c3c(Cl)ccc(NS(=O)(=O)c4ccc(C(C)(C)C)cc4)c3C2=O)c1` [Compound 212], the Ki turned out to be 60 nM in assay [1] and 59 nM in assay [2].
For the molecule `COC(=O)c1sccc1N1C(=O)c2c(Cl)ccc(NS(=O)(=O)c3ccc(C(C)(C)C)cc3)c2C1=O` [Compound 155, methyl 3-(4-((4-(tert-butyl)phenyl)sulfonamido)-7-chloro-1,3-dioxoisoindolin-2-yl)thiophene-2-carboxylate], the Ki in assay [1] turned out to be 135 nM; in assay [2] it was 44 nM.
On the same counts, the results for `COc1cc[n+]([O-])cc1N1C(=O)c2c(Cl)ccc(NS(=O)(=O)c3ccc(C(C)(C)C)cc3)c2C1=O` [Compound 189] are 34 nM and 8 nM.
On the same counts, the results for `CC(C)(C)c1ccc(S(=O)(=O)Nc2ccc(Cl)c3c2C(=O)N(c2ccc[n+]([O-])c2)C3=O)cc1` [Compound 44, 3-(4-(4-(tert-butyl)phenylsulfonamido)-7-chloro-1,3-dioxoisoindolin-2-yl)pyridine 1-oxide] are 179 nM and 16 nM.
On the same counts, the results for `N#Cc1cccc(CN2C(=O)c3c(Cl)ccc(NS(=O)(=O)c4ccc(F)c(C(F)(F)F)c4)c3C2=O)c1` [Compound 133] are 158 nM and 220 nM.
Turning to `Cc1cnc(N2C(=O)c3c(Cl)ccc(NS(=O)(=O)c4ccc(C(C)(C)C)cc4)c3C2=O)cn1` [Compound 275], the Ki stood at 54 nM in assay [1] and 32 nM in assay [2].
On the same counts, the results for `Cc1cnc(N2C(=O)c3c(Cl)ccc(NS(=O)(=O)c4ccc(C(C)(C)C)cc4)c3C2=O)s1` [Compound 217] are 39 nM and 35 nM.
`CC(Cc1cccnc1)N1C(=O)c2c(Cl)ccc(NS(=O)(=O)c3ccc(C(C)(C)C)cc3)c2C1=O` (stereo not shown) [Compound 196]: the Ki stood at 103 nM in assay [1] and 46 nM in assay [2].
On the same counts, the results for `Cc1c(N2C(=O)c3c(Cl)ccc(NS(=O)(=O)c4ccc(C(C)(C)C)cc4)c3C2=O)ccc[n+]1[O-]` [Compound 176, 3-(4-(4-(tert-butyl)phenylsulfonamido)-7-chloro-1,3-dioxoisoindolin-2-yl)-2-methylpyridine 1-oxide] are 13 nM and 6 nM.
In the case of `CCOc1ccncc1N1C(=O)c2c(Cl)ccc(NS(=O)(=O)c3ccc(C(C)(C)C)cc3)c2C1=O` [Compound 271], the Ki in assay [1] is 35 nM; in assay [2], 9 nM.
On the same counts, the results for `Cc1c[n+]([O-])ccc1N1C(=O)c2c(Cl)ccc(NS(=O)(=O)c3ccc(C(C)(C)C)cc3)c2C1=O` [Compound 272] are 29 nM and 9 nM.
On the same counts, the results for `Cc1ccnc(N2C(=O)c3c(Cl)ccc(NS(=O)(=O)c4ccc(C(C)(C)C)cc4)c3C2=O)c1` [Compound 225] are 51 nM and 54 nM.
On the same counts, the results for `Cc1ccc(N2C(=O)c3c(Cl)ccc(NS(=O)(=O)c4ccc(C(C)(C)C)cc4)c3C2=O)nn1` [Compound 236] are 32 nM and 51 nM.
For `COc1ccc(CN2C(=O)c3c(Cl)ccc(NS(=O)(=O)c4ccc(C(C)(C)C)cc4)c3C2=O)cn1` [Compound 235], the values for the inhibition constant (Ki) in assay [1] and in assay [2] were 94 nM and 123 nM, respectively.
As for `Cc1ccc(CN2C(=O)c3c(Cl)ccc(NS(=O)(=O)c4ccc(C(C)(C)C)cc4)c3C2=O)[n+]([O-])c1` [Compound 259], the Ki was 45 nM in assay [1] and 13 nM in assay [2].
On the same counts, the results for `CC(C)(C)c1ccc(S(=O)(=O)Nc2cccc3c2C(=O)N(c2cccnc2)C3=O)cc1` [Compound 1, 4-tert-Butylphenylsulfonic acid (1,3-dioxo-2-(pyridin-3-yl)-2,3-dihydro-1H-isoindol-4-yl)-amide] are 1240 nM and 479 nM.
With `Cn1cnc(N2C(=O)c3c(Cl)ccc(NS(=O)(=O)c4ccc(C(C)(C)C)cc4)c3C2=O)c1` [Compound 153, 4-(tert-butyl)-N-(7-chloro-2-(1-methyl-1H-imidazol-4-yl)-1,3-dioxoisoindolin-4-yl)benzenesulfonamide], the Ki in assay [1] was determined as 43 nM; in assay [2] it was 7 nM.
On the same counts, the results for `Cn1cnc(N2C(=O)c3c(Cl)ccc(NS(=O)(=O)c4ccc(C(C)(C)C)cc4)c3C2=O)n1` [Compound 255] are 72 nM and 17 nM.
On the same counts, the results for `Cc1cc(C)c(CN2C(=O)c3c(Cl)ccc(NS(=O)(=O)c4ccc(C(C)(C)C)cc4)c3C2=O)c(=O)[nH]1` [Compound 283] are 20 nM and 15 nM.
On the same counts, the results for `Cc1ccncc1N1C(=O)c2c(Cl)ccc(NS(=O)(=O)c3ccc(C(C)(C)C)cc3)c2C1=O` [Compound 185] are 23 nM and 7 nM.
Take `Cn1ccc(N2C(=O)c3c(Cl)ccc(NS(=O)(=O)c4ccc(C(C)(C)C)cc4)c3C2=O)n1` [Compound 145]: the Ki was determined as 73 nM in assay [1] and 129 nM in assay [2].
On the same counts, the results for `N#Cc1cccc(CN2C(=O)c3c(Cl)ccc(NS(=O)(=O)c4ccc(C(F)(F)F)cc4)c3C2=O)c1` [Compound 128] are 447 nM and 244 nM.
On the same counts, the results for `CC(C)(C)c1ccc(S(=O)(=O)Nc2ccc(Cl)c3c2C(=O)N(c2cccnc2F)C3=O)cc1` [Compound 218] are 26 nM and 7 nM.
On the same counts, the results for `CC(C)(C)c1ccc(S(=O)(=O)Nc2ccc(Cl)c3c2C(=O)N(c2cccc(C#N)c2)C3=O)cc1` [Compound 120, 4-(tert-butyl)-N-(7-chloro-2-(3-cyanophenyl)-1,3-dioxoisoindolin-4-yl)benzenesulfonamide] are 90 nM and 74 nM.
For `Cc1cncc(N2C(=O)c3c(Cl)ccc(NS(=O)(=O)c4ccc(C(C)(C)C)cc4)c3C2=O)c1` [Compound 104, 4-(tert-butyl)-N-(7-chloro-2-(5-methylpyridin-3-yl)-1,3-dioxoisoindolin-4-yl)benzenesulfonamide], the inhibitory constant (Ki) is 239 nM in assay [1] and 30 nM in assay [2].
On the same counts, the results for `COc1cncc(N2C(=O)c3c(Cl)ccc(NS(=O)(=O)c4ccc(C(C)(C)C)cc4)c3C2=O)c1C` [Compound 242] are 56 nM and 18 nM.
Take `Cc1ccc(N2C(=O)c3c(Cl)ccc(NS(=O)(=O)c4ccc(C(C)(C)C)cc4)c3C2=O)c(C)[n+]1[O-]` [Compound 227]: the values for the Ki in assay [1] and in assay [2] were 32 nM and 14 nM, respectively.
For `Cc1cc(N2C(=O)c3c(Cl)ccc(NS(=O)(=O)c4ccc(C(C)(C)C)cc4)c3C2=O)cn(C)c1=O` [Compound 285], the Ki in assay [1] worked out at 78 nM; in assay [2], 16 nM.
